Results from US6794371B1, “Aminoalkylenephosphonates for treatment of bone disorders” (The Dow Chemical Company, priority 1999, dated 2004).

Tested on: ovariectomized rats (bone mineral density)
Test: Ovariectomized rat osteoporosis model, bone mineral density by dual energy X-ray absorptiometry (DEXA) (Example 2)
Conditions: 5 mg/kg
Description: Eleven week old Female Sprague-Dawley laboratory rats (75) were fed a commercial rat diet and were allowed to drink water ad libitum. They were housed in pairs in an air-conditioned environment, and were allowed to enjoy 14 hours of illumination per day. Ten rats were sham-operated and were used as “non-osteopenic” control rats. All of the other rats were ovariectomized at 12 weeks of age. All surgeries were done under injectable anesthesia. […] The remaining rats were given various phosphonate compounds in groups of ten.
The rats were given doses three times during the first week and once a week thereafter.
All other compounds were dosed at 5 mg/kg. In this study, bone mineral density was determined by dual energy X-ray absorptiometry (DEXA).

| SMILES | bone mineral density (BMD) over the study period, relative to OVX control group |
| --- | --- |
| O=P(O)(O)CN1Cc2cccc(n2)CN(CP(=O)(O)O)Cc2cccc(n2)C1 [BP2MP, N,N′-bis(methylenephosphonic acid)-2,11-diaza[3.3](2,6)pyridinophane] | look even better |
| O=P(O)(O)CN(Cc1ccccn1)CP(=O)(O)O [AMPDMP, N,N-bis(methylenephosphonic acid)-2-(aminomethyl)pyridine] | look even better |
